The source of these data is PubChem BioAssay (NCI).

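Where inhibition never reached the appropriate level, the endpoint shown equals the highest concentration tested. Otherwise, values were interpolated linearly from a five-concentration, 48-hour dose response in 96-well plates. TGI denotes the concentration required for complete inhibition of growth.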

Some test systems named below: CCRF-CEM leukemia; DU-145 prostate; HCT-15 colon; HL-60(TB) leukemia; HOP-62 NSCLC; HT29 colon; M14 melanoma; MCF7 breast; MDA-MB-231 breast; NCI-H460 lung; SK-MEL-2 melanoma; SK-MEL-5 melanoma; SN12C renal; SNB-19 CNS; TK-10 renal; UACC-62 melanoma; SW-620 colon; MDA-MB-435.
Assay in all cases: NCI tumour cell line growth inhibition, 48 h

In the case of `COC(=O)c1cc(/C=C/C(=O)Cc2ccccc2)cn1S(=O)(=O)c1ccccc1`, the TGI with CCRF-CEM leukemia, in the assay with DU-145 prostate, in the assay on HCT-15 colon, in the assay with HL-60(TB) leukemia, in the assay with HOP-62 NSCLC and in the assay on HT29 colon was > 100 µM in each case. Also, the TGI in the assay on M14 melanoma, with MCF7 breast, with MDA-MB-231 breast, in the assay on NCI-H460 lung, in the assay with SK-MEL-2 melanoma and in the assay on SK-MEL-5 melanoma was > 100 µM each time. Moreover, the TGI in the assay with SN12C renal, with SNB-19 CNS, in the assay with TK-10 renal and in the assay with UACC-62 melanoma was > 100 µM each time.
As for `COc1ccccc1/C=C1\CCC(Cc2ccccc2)(CN(C)C)C1=O` (configuration not stated), the TGI is 24.4 µM in the assay with CCRF-CEM leukemia; > 100 µM with DU-145 prostate; 14.4 µM with HCT-15 colon; 15.1 µM in the assay with HL-60(TB) leukemia; > 69 µM in the assay on HOP-62 NSCLC; 5.55 µM in the assay on HT29 colon. For the same molecule, the TGI in the assay with M14 melanoma amounted to 34.9 µM; with MCF7 breast, 25.6 µM; in the assay on MDA-MB-231 breast it was 46.7 µM; in the assay with NCI-H460 lung, 12.8 µM; with SK-MEL-2 melanoma it was 34.8 µM; in the assay on SK-MEL-5 melanoma it was 11.9 µM. Moreover, the TGI was 50.3 µM in the assay with SN12C renal; > 100 µM in the assay with SNB-19 CNS; 35.2 µM in the assay with SW-620 colon; > 77.7 µM with TK-10 renal; > 26.1 µM in the assay with UACC-62 melanoma.
With `N#Cc1c(C#N)c(SSc2c(C#N)c(C#N)c(N)n2-c2cccc3ccccc23)n(-c2cccc3ccccc23)c1N`, the TGI with DU-145 prostate is 47.6 µM; in the assay on HCT-15 colon, 4.01 µM; in the assay on HOP-62 NSCLC, 49.9 µM; in the assay on HT29 colon, 39.2 µM; in the assay on M14 melanoma, 8.4 µM; with MCF7 breast it was > 100 µM. In addition, the TGI in the assay with MDA-MB-231 breast is 40.8 µM; in the assay with MDA-MB-435, 36.5 µM; in the assay on NCI-H460 lung it was > 100 µM; in the assay with SK-MEL-2 melanoma, 34.8 µM; in the assay with SK-MEL-5 melanoma it was 41.8 µM; with SN12C renal, 34.8 µM. Moreover, the TGI is 46.4 µM in the assay with SNB-19 CNS, > 100 µM in the assay with SW-620 colon, 40.9 µM with TK-10 renal and 46.6 µM in the assay with UACC-62 melanoma.
Regarding `COc1ccccc1N1CCN(S(=O)(=O)c2ccc(Cl)cc2)C1=N`, the TGI in the assay with DU-145 prostate, in the assay with HCT-15 colon, in the assay with HOP-62 NSCLC, in the assay with M14 melanoma, in the assay on MCF7 breast and with MDA-MB-231 breast was > 100 µM in each case. For the same molecule, the TGI in the assay with MDA-MB-435, in the assay on NCI-H460 lung, in the assay with SK-MEL-2 melanoma, with SK-MEL-5 melanoma, with SN12C renal and in the assay on SNB-19 CNS was > 100 µM throughout. Moreover, the TGI in the assay with SW-620 colon, in the assay with TK-10 renal and in the assay on UACC-62 melanoma was > 100 µM in each case.
As to `C1=NN2C(c3ccccc3)=NOC2C2C(c3ccccc3)=NOC12` (configuration not stated), the TGI with DU-145 prostate, with HCT-15 colon, in the assay with HOP-62 NSCLC, with M14 melanoma, with MCF7 breast and with MDA-MB-231 breast was > 100 µM each time. Further, the TGI in the assay with NCI-H460 lung, with SK-MEL-5 melanoma, in the assay on SNB-19 CNS, with TK-10 renal and in the assay with UACC-62 melanoma was > 100 µM throughout.
On to `Cc1cc(C)c(NS(=O)c2ccc(Cl)cc2)c(C)c1` (configuration not stated), for which the TGI in the assay with CCRF-CEM leukemia, in the assay with DU-145 prostate, with HCT-15 colon, with HL-60(TB) leukemia, in the assay on HOP-62 NSCLC and in the assay on HT29 colon was > 100 µM in each case. Also, the TGI in the assay on M14 melanoma, with MCF7 breast, in the assay with MDA-MB-435, in the assay on NCI-H460 lung, in the assay with SN12C renal and with SNB-19 CNS was > 100 µM throughout. Moreover, the TGI in the assay with SW-620 colon and with TK-10 renal was > 100 µM each time.
Turning to `COC(C)=NCCC1=CCCCC1`, the TGI in the assay on DU-145 prostate, in the assay with HCT-15 colon, with HOP-62 NSCLC, in the assay on HT29 colon, with M14 melanoma and in the assay with MCF7 breast was > 100 µM throughout. In addition, the TGI in the assay with MDA-MB-231 breast, in the assay on MDA-MB-435, with NCI-H460 lung, in the assay with SK-MEL-2 melanoma, with SK-MEL-5 melanoma and in the assay with SNB-19 CNS was > 100 µM in each case. The TGI in the assay with SW-620 colon, in the assay on TK-10 renal and with UACC-62 melanoma was > 100 µM each time.
As for `COc1ccc(OC(=O)N2C/C(=C\c3ccccc3)C(=O)/C(=C/c3ccccc3)C2)cc1`, the TGI with CCRF-CEM leukemia turned out to be 6.73 µM; in the assay with DU-145 prostate, 65.1 µM; with HCT-15 colon, 9.23 µM; in the assay with HL-60(TB) leukemia, 14 µM; in the assay on HOP-62 NSCLC, 21.4 µM; in the assay with HT29 colon it was 3.73 µM. Moreover, the TGI turned out to be 7.97 µM in the assay on M14 melanoma; 4.77 µM with MCF7 breast; 7.83 µM in the assay with MDA-MB-231 breast; 13.7 µM in the assay with NCI-H460 lung; 45.6 µM with SK-MEL-2 melanoma; 8.84 µM in the assay on SK-MEL-5 melanoma. Also, the TGI was determined as 5.83 µM with SN12C renal; 16.6 µM in the assay with SNB-19 CNS; 2.89 µM in the assay on SW-620 colon; 44 µM with TK-10 renal; 5.35 µM in the assay on UACC-62 melanoma.
For `O=C(Nn1c(-c2ccccc2)nc2ccccc2c1=O)c1cccc([N+](=O)[O-])c1`, the TGI in the assay on CCRF-CEM leukemia, in the assay with DU-145 prostate, with HCT-15 colon, in the assay with HL-60(TB) leukemia, in the assay with HOP-62 NSCLC and in the assay on HT29 colon was > 100 µM throughout. Besides, the TGI with M14 melanoma, in the assay with MCF7 breast, with MDA-MB-435, with NCI-H460 lung, in the assay with SK-MEL-5 melanoma and in the assay with SN12C renal was > 100 µM in each case. Further, the TGI with SNB-19 CNS, in the assay with SW-620 colon, with TK-10 renal and in the assay with UACC-62 melanoma was > 100 µM each time.
